Series [1] has as its target Recombinant full length human OGA enzyme (Homo sapiens (Human), UniProt O60502). Put plainly: OGA Enzyme Inhibition Biochemical Assay. The conditions noted are these: 1 nM OGA, 100 μM 4-MUGlcNAc, pH 6.4. The protocol: Recombinant full length human OGA enzyme was purchased from Origene. 4-MUGlcNAc substrate was purchased from Sigma. All other reagents were purchased from Sigma or Fisher. Assay buffer consists of the McIlvaine buffer system, pH 6.4 (0.2M Na2HPO4 mixed with 0.1M citric acid) and 0.01% BSA. […] Reactions were incubated for 90 minutes at room temperature and quenched with 40 μl of 3M glycine, pH 10 and read on a Perkin Elmer Envision plate reader (Ex: 355 nm/Em: 460 nm). Compounds were tested with a 10-point dose-response starting from 20 μM with a 4-fold dilution. Data was fit using GraphPad Prism using a 4-parameter fit with variable slope.

In series [2] the target is OGA (S400 O-GLCNAC), HEK-293T cells transfected with Tau-V5 (Homo sapiens (Human), UniProt O60502). Kind of series: Cellular OGA-Tau MSD Assay. Type of series: cell-based. As for the experimental part:
HEK-293T cells were transfected with […] and Tau-V5 plasmids using Lipofectamine and grown overnight. Next day, the cells were collected and re-plated at 1×10^5 cells per well in 96 well plates. Cells were incubated for 4 hr at 37° C., before compounds were added at 1 uM, with 3-fold dilutions in a 10-point titration. Cell plates were incubated with compounds overnight at 37° C. The next day media was removed from wells by gentle aspiration and 120 ul of 1× Cell Lysis buffer mixed with protease and phosphatase cocktail added to each well. A freeze thaw was performed at -80° C., then mixed before transferring 50 ul to MSD plates coated with V5-tag antibody to capture Tau. MSD Plates were incubated overnight at 4° C., on a plate shaker. The following day, plates were washed and incubated with Tau-[…]-GlcNAc antibody for 2 hr and then developed with rabbit Sulfo-tag antibody. Final read out was carried out on an MSD 600 reader. The data was analyzed using Graph Pad or Genedata, the data was normalized and % activity versus log of compound concentration was plotted. The IC50 values were obtained from a 4 parameter fit.

The subject of another series is P-gp (MDR1). Put plainly: MDR1-MDCK Efflux Ratio Assay. Type of series: in vitro ADME. The note with it: dog, read-out: MDR1-MDCK Efflux Ratio (B-A/A-B). The protocol:
MDR1-MDCK cell monolayers were grown to confluence on microporous polyester membranes in 96-well Corning insert plates. The permeability assay buffer was Hanks' Balanced Salt Solution containing 10 mM HEPES at pH of 7.4. Loperamide (1 μM) was used as a positive control P-gp substrate. Propranolol and Bestatin (1 μM) were used as high and low permeability comparators, respectively. Test compounds or positive control P-gp substrate/permeability comprators were added to respective apical and basolateral chambers for bidirectional assessment of permeability. Receiver buffer (transport buffer supplemented with 1% bovine serum albumin) was added to respective receiver chambers. MDR1-MDCK cells were incubated with test compounds at 37° C. with 5% CO2 for 2 hr. Samples were collected from the donor chamber at both 0 and 120 minutes, and from the receiver chamber at 120 minutes. Test and control compound concentrations were determined using LC-MS/MS analysis. Each determination was performed in triplicate. The apparent permeability (Papp), efflux ratio and mass balance (percent recovery) were calculated as follows: [formula] where: dCr/dt is the cumulative concentration in the receiver compartment versus time in μM s^−1 Vr is the volume of the receiver compartment in cm^3 Vd is the volume of the donor compartment in cm^3 A is the area of the insert (0.143 cm^2 for 96-well insert) CE is the estimated experimental concentration (Time=0) of the dosing solution Cr^final is the concentration of the receiver at the end of the incubation period Cd^final is the concentration of the donor at the end of the incubation period.

A short description of series [3]: Rat Liver Microsome Stability Assay. Type of series: in vitro ADME. Background: Microsomes from liver hold many membrane-bound enzymes, among them those of drug oxidation.
Where [4] appears, read: HEK-293T cells, Tau-S400-GlcNAc MSD readout.
Where [5] appears, read: MDCK-MDR1, pH 7.4, MDR1-MDCK cells, 2 hr, pH 7.4.
The mark [6] stands for this setting: rat liver microsomes, 1 uM compound.
Where [7] appears, read: MDCK-MDR1, pH 7.4, repeated assay, value marked with asterisk (*).
The mark [8] stands for this setting: repeated assay, value marked with asterisk (*).

Read-outs that look alike come from different tables or passages of the source. Marks after values point to notes of the source that are not given here.

Sequence of Recombinant full length human OGA enzyme (O60502 whole entry): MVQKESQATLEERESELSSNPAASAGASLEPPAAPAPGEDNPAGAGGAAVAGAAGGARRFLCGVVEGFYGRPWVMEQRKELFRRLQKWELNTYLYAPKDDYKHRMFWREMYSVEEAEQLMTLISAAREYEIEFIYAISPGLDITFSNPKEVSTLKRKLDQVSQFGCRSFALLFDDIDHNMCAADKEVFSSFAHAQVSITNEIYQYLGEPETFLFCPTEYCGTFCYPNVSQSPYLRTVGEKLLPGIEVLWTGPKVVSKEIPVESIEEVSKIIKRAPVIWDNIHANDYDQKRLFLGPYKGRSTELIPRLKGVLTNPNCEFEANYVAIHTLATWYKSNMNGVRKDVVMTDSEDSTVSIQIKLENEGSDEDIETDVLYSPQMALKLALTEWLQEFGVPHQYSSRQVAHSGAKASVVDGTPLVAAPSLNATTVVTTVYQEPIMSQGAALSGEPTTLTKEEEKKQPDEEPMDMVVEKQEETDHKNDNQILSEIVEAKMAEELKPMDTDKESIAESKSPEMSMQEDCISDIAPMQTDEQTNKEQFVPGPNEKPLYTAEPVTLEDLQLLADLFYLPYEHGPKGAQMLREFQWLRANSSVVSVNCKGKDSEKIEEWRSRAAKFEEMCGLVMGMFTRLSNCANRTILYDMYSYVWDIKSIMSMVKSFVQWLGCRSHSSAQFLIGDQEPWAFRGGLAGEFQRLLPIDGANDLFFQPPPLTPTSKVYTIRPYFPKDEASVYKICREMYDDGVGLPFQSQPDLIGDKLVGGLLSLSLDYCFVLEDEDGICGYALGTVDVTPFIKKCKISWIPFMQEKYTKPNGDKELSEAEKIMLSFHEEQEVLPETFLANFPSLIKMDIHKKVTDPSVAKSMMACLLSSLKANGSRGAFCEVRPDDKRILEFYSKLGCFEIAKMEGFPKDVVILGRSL
Sequence of OGA (S400 O-GLCNAC), HEK-293T cells transfected with Tau-V5 (O60502 whole entry): as above

As a reminder, the IC50 is the point on the concentration scale where inhibition reaches its midpoint. `CC(=O)Nc1nc(F)c(CN2C[C@H](Oc3cc(C)nc(C)c3)C[C@H]2C)s1` (stereo in doubt) [Example 1-51, N-(5-(((2R,4R)-4-((2,6-dimethylpyridin-4-yl)oxy)-2-methylpyrrololidin-1-yl)methyl)-4-fluorothiazol-2-yl)acetamide]: the figures for the IC50 in series [1] and in series [2] (setting [4]) were 2 nM and 24 nM, respectively. Further, in the series with P-gp (MDR1) (setting [5]), the efflux ratio at 2 h was found to be 23.3. Further, the “RLM % Qh (%)” value in series [3] (setting [6]) is 51%.
For `CC(=O)Nc1ncc(CN2C[C@@H](Oc3ccc(C)nc3)C[C@H]2C)s1` (stereo in doubt) [Example 1-116, N-(5-(((2R,4S)-2-methyl-4-((6-methylpyridin-3-yl)oxy)pyrrolidin-1-yl)methyl)thiazol-2-yl)acetamide], in that order: less than 1 nM, 1 nM, 19.6 and 55%.
For the compound `COc1cc(O[C@@H]2C[C@H](C)N(Cc3cnc(NC(C)=O)s3)C2)ncn1` [Example 1-1, N-(5-(((2S,4R)-4-((6-methoxypyrimidin-4-yl)oxy)-2-methylpyrrolidin-1-yl)methyl)thiazol-2-yl)acetamide], the results for the half-maximal inhibitory concentration (IC50) in series [1] and in series [2] (setting [4]) were less than 1 nM and 2 nM, respectively. In the series with P-gp (MDR1) (setting [5]), the efflux ratio at 2 h is 4.8. Moreover, the “RLM % Qh (%)” value in series [3] (setting [6]) is reported as 31%.
Regarding `CC(=O)Nc1ncc(CN2CCC[C@H](Oc3ccc(F)cn3)C2)s1` [Example 1-2, (S)—N-(5-((3-((5-fluoropyridin-2-yl)oxy)piperidin-1-yl)methyl)thiazol-2-yl)acetamide], the IC50 turned out to be 210 nM in series [1] and 35 nM in series [2] (setting [4]). For the same compound, the efflux ratio at 2 h in the series with P-gp (MDR1) (setting [5]) came out at 2.3; with P-gp (MDR1) (setting [7]), 2.1. Also, the “RLM % Qh (%)” value in series [3] (setting [6]) stood at 86%.
On to `CC(=O)Nc1ncc(CN2CCC[C@@H](Oc3ccc(F)cn3)C2)s1` [Example 1-3, (R)—N-(5-((3-((5-fluoropyridin-2-yl)oxy)piperidin-1-yl)methyl)thiazol-2-yl)acetamide], for which the half-inhibitory concentration (IC50) in series [1] stood at 140 nM; in series [2] (setting [4]), 38 nM. The results for the efflux ratio at 2 h in the series on P-gp (MDR1) (setting [5]) and with P-gp (MDR1) (setting [7]) were 2.3 and 2.2, respectively. The “RLM % Qh (%)” value in series [3] (setting [6]) is given as 82%.
For the compound `CC(=O)Nc1ncc(CN2CC[C@@H](Oc3ccc(F)cn3)C2)s1` [Example 1-6, (R)—N-(5-((3-((5-fluoropyridin-2-yl)oxy)pyrrolidin-1-yl)methyl)thiazol-2-yl)acetamide], the results for the IC50 in series [1] and in series [2] (setting [4]) were 80 nM and 37 nM, respectively. Further, the efflux ratio at 2 h with P-gp (MDR1) (setting [5]) is 1.7. The “RLM % Qh (%)” value in series [3] (setting [6]) came to 40%.
For `CC(=O)Nc1ncc(CN2C[C@@H](Oc3ccc(F)cn3)C[C@H]2C)s1` [Example 1-8, N-(5-(((2R,4S)-4-((5-fluoropyridin-2-yl)oxy)-2-methylpyrrolidin-1-yl)methyl)thiazol-2-yl)acetamide], in that order: 460 nM, more than 1000 nM, 2.3 and 76%.
Consider `CC(=O)Nc1ncc(CN2C[C@@H](Oc3ccc(F)cn3)C[C@@H]2C)s1` [Example 1-9, N-(5-(((2S,4S)-4-((5-fluoropyridin-2-yl)oxy)-2-methylpyrrolidin-1-yl)methyl)thiazol-2-yl)acetamide], for which the IC50 in series [1] is 39 nM; in series [2] (setting [4]), 32 nM. Also, the efflux ratio at 2 h in the series on P-gp (MDR1) (setting [5]) is 1.9. In series [3] (setting [6]), the “RLM % Qh (%)” value was 87%.
Consider `CC(=O)Nc1ncc(CN2C[C@H](Oc3ccc(F)cn3)C[C@H]2C)s1` [Example 1-10, N-(5-(((2R,4R)-4-((5-fluoropyridin-2-yl)oxy)-2-methylpyrrolidin-1-yl)methyl)thiazol-2-yl)acetamide], for which the half-maximal inhibitory concentration (IC50) worked out at 28 nM in series [1] and 115 nM in series [2] (setting [4]). For the same compound, the efflux ratio at 2 h in the series with P-gp (MDR1) (setting [5]) is 1.9. Also, the “RLM % Qh (%)” value in series [3] (setting [6]) is recorded as 76%.
For the compound `CC(=O)Nc1ncc(CN2C[C@H](Oc3ccc(F)cn3)C[C@@H]2C)s1` [Example 1-11, N-(5-(((2S,4R)-4-((5-fluoropyridin-2-yl)oxy)-2-methylpyrrolidin-1-yl)methyl)thiazol-2-yl)acetamide], the IC50 in series [1] was less than 1 nM; in series [2] (setting [4]), 3 nM. In addition, the efflux ratio at 2 h in the series on P-gp (MDR1) (setting [5]) is 1.1; in the series with P-gp (MDR1) (setting [7]), 1.9. Moreover, in series [3] (setting [6]), the “RLM % Qh (%)” value was 73%.
For the compound `COc1cncc(O[C@@H]2C[C@H](C)N(Cc3cnc(NC(C)=O)s3)C2)n1` [Example 1-12, N-(5-(((2S,4R)-4-((6-methoxypyrazin-2-yl)oxy)-2-methylpyrrolidin-1-yl)methyl)thiazol-2-yl)acetamide], the IC50 in series [1] is less than 1 nM; in series [2] (setting [4]), 3 nM; in series [2] (setting [8]), 2 nM. Moreover, the efflux ratio at 2 h in the series on P-gp (MDR1) (setting [5]) was determined as 10; in the series on P-gp (MDR1) (setting [7]), 8.9. In addition, the “RLM % Qh (%)” value in series [3] (setting [6]) is recorded as 97%; in series [3] (setting [8]) it was 98* %.
In the case of `CC(=O)Nc1ncc(CN2C[C@H](Oc3ccc(C(F)F)cn3)C[C@@H]2C)s1` [Example 1-13, N-(5-(((2S,4R)-4-((5-(difluoromethyl)pyridin-2-yl)oxy)-2-methylpyrrolidin-1-yl)methyl)thiazol-2-yl)acetamide], the IC50 in series [1] turned out to be 1.1 nM; in series [2] (setting [4]), 2 nM. For the same compound, in the series with P-gp (MDR1) (setting [5]), the efflux ratio at 2 h is 2.4. The “RLM % Qh (%)” value in series [3] (setting [6]) is given as 90%.
Regarding `CC(=O)Nc1ncc(CN2C[C@H](Oc3ccccn3)C[C@@H]2C)s1` [Example 1-14, N-(5-(((2S,4R)-2-methyl-4-(pyridin-2-yloxy)pyrrolidin-1-yl)methyl)thiazol-2-yl)acetamide], the values for the IC50 in series [1] and in series [2] (setting [4]) were 1.3 nM and 5 nM, respectively. Also, the efflux ratio at 2 h in the series on P-gp (MDR1) (setting [5]) stood at 2.9. The “RLM % Qh (%)” value in series [3] (setting [6]) was found to be 68%.
Turning to `CC(=O)Nc1ncc(CN2C[C@H](Oc3ccc(F)c(C)n3)C[C@@H]2C)s1` [Example 1-15, N-(5-(((2S,4R)-4-((5-fluoro-6-methylpyridin-2-yl)oxy)-2-methylpyrrolidin-1-yl)methyl)thiazol-2-yl)acetamide], the IC50 in series [1] is less than 1 nM; in series [2] (setting [4]) it was 2 nM. In addition, the efflux ratio at 2 h in the series on P-gp (MDR1) (setting [5]) came out at 2.2. The “RLM % Qh (%)” value in series [3] (setting [6]) was found to be 95%.
As for `CC(=O)Nc1ncc(CN2C[C@H](Oc3ccc(C#N)cn3)C[C@@H]2C)s1` [Example 1-16, N-(5-(((2S,4R)-4-((5-cyanopyridin-2-yl)oxy)-2-methylpyrrolidin-1-yl)methyl)thiazol-2-yl)acetamide], the IC50 was less than 1 nM in series [1] and 1 nM in series [2] (setting [4]). In addition, the efflux ratio at 2 h in the series with P-gp (MDR1) (setting [5]) was determined as 9.7. The “RLM % Qh (%)” value in series [3] (setting [6]) was 50%; in series [3] (setting [8]), 51* %.
On to `CC(=O)Nc1ncc(CN2C[C@H](Oc3cnc(Cl)cc3C)C[C@@H]2C)s1` [Example 1-17, N-(5-(((2S,4R)-4-((6-chloro-4-methylpyridin-3-yl)oxy)-2-methylpyrrolidin-1-yl)methyl)thiazol-2-yl)acetamide], for which the concentration for half-maximal inhibition (IC50) in series [1] is less than 1 nM; in series [2] (setting [4]), 2 nM. In addition, the efflux ratio at 2 h was 12 in the series on P-gp (MDR1) (setting [5]) and 12.4 in the series on P-gp (MDR1) (setting [7]). In series [3] (setting [6]), the “RLM % Qh (%)” value was found to be 88%.
`CC(=O)Nc1ncc(CN2C[C@H](Oc3cc(C(F)F)ncn3)C[C@@H]2C)s1` [Example 1-18, N-(5-(((2S,4R)-4-((6-(difluoromethyl)pyrimidin-4-yl)oxy)-2-methylpyrrolidin-1-yl)methyl)thiazol-2-yl)acetamide]: the IC50 was 2.4 nM in series [1] and 12 nM in series [2] (setting [4]). Besides, the efflux ratio at 2 h in the series with P-gp (MDR1) (setting [5]) stood at 11.7. In series [3] (setting [6]), the “RLM % Qh (%)” value is listed as 48%.

Source of the values: US20240308995A1, “O-GLYCOPROTEIN-2-ACETAMIDO-2-DEOXY-3-D-GLUCOPYRANOSIDASE INHIBITORS” (BIOGEN MA INC., priority 2018, published 2024).
